Patent US6689883B1, “Substituted pyridines and pyridazines with angiogenesis inhibiting activity” (Bayer Pharmaceuticals Corporation, priority 1999, dated 2004)

biological target: T1, cytosolic kinase domain of KDR kinase (Homo sapiens, UniProt P35968); test: KDR Assay (ELISA, poly(Glu4;Tyr1) phosphorylation); format: biochemical; conditions: 3.3 μM ATP, 60 minutes at room temperature
T1 construct: The cytosolic kinase domain of KDR kinase was expressed as a 6His fusion protein in Sf9 insect cells; 6His; made in house; host or cells: Sf9 insect cells
T1 sequence (P35968 834-1162 limits assumed): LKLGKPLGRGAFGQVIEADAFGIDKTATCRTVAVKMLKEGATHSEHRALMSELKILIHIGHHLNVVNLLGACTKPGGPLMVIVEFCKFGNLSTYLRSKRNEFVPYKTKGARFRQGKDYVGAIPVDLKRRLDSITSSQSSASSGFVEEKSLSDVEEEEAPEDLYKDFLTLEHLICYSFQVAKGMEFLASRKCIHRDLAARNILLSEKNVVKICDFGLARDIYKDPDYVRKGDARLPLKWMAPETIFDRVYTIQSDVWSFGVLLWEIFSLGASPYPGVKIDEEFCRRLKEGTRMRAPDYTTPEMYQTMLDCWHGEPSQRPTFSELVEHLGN
Method: The cytosolic kinase domain of KDR kinase was expressed as a 6His fusion protein in Sf9 insect cells. The KDR kinase domain fusion protein was purified over a Ni++ chelating column. Ninety-six well ELISA plates were coated with 5 μg poly(Glu4;Tyr1) (Sigma Chemical Co., St Louis, Mo.) in 100 μl HEPES buffer (20 mM HEPES, pH 7.5, 150 mM NaCl, 0.02% Thimerosal) at 4° overnight. Before use, the plate was washed with HEPES, NaCl buffer and the plates were blocked with 1% BSA, 0.1% Tween 20 in HEPES, NaCl buffer.
Test compounds were serially diluted in 100% DMSO from 4 mM to 0.12 μM in half-log dilutions. These dilutions were further diluted twenty fold in H2O to obtain compound solutions in 5% DMSO. Following loading of the assay plate with 85 μl of assay buffer (20 mM HEPES, pH 7.5, 100 mM KCl, 10 mM MgCl2, 3 mM MnCl2, 0.05% glycerol, 0.005% Triton X-100, 1 mM-mercaptoethanol, with or without 3.3 μM ATP), 5 μl of the diluted compounds were added to a final assay volume of 100 μl. Final concentrations were between 10 μM, and 0.3 nM in 0.25% DMSO. The assay was initiated by the addition of 10 μl (30 ng) of KDR kinase domain.
The assay was incubated with test compound or vehicle alone with gentle agitation at room temperature for 60 minutes. The wells were washed and phosphotyrosines (PY) were probed with an anti-phosphotyrosine (PY), mAb clone 4G10 (Upstate Biotechnology, Lake Placid, N.Y.). PY/anti-PY complexes were detected with an anti-mouse IgG/HRP conjugate (Amersham International plc, Buckinghamshire, England). Phosphotyrosine was quantitated by incubating with 100 μl 3,3′,5,5′tetramethylbenzidine solution (Kirkegaard and Perry, TMB Microwell 1 Component peroxidase substrate). Color development was arrested by the addition of 100 μl 1% HCl-based stop solution (Kirkegaard and Perry, TMB 1 Component Stop Solution).
Optical densities were determined spectrophotometrically at 450 nm in a 96-well plate reader, SpectraMax 250 (Molecular Devices). Background (no ATP in assay) OD values were subtracted from all ODs and the percent inhibition was calculated according to the equation: [formula]

Row | Structure (SMILES) | IC50
1 | CNC(=O)c1cc(COc2nnc(Nc3ccc(C)c(OC)c3)c3ccoc23)ccn1 [Example 60] | ≤ 100 nM
2 | CNC(=O)c1cc(COc2nnc(Nc3ccc(C)cc3)c3ccoc23)ccn1 [Example 39] | ≤ 100 nM
3 | CNC(=O)c1cc(COc2nnc(Nc3ccc4c(c3)CCO4)c3ccoc23)ccn1 [Example 65] | ≤ 100 nM
4 | c1nc2c(Nc3ccc4nn[nH]c4c3)nnc(Nc3ccc4nn[nH]c4c3)c2[nH]1 [Example 31] | > 1000 nM
5 | COc1ccc(Nc2nnc(OCc3ccnc(C(N)=O)c3)c3occc23)cc1 [Example 22, 4-(4-methoxyphenylamino)-7-(2-aminocarbonyl4-pyridylmethoxy)furo-[2,3-d]pyridazine] | ≤ 100 nM
6 | c1nc2c(Nc3ccc4[nH]ncc4c3)nnc(Nc3ccc4[nH]ncc4c3)c2[nH]1 [Example 32] | > 1000 nM
7 | CN(C)C(=O)c1cc(COc2nnc(Nc3ccc(Cl)cc3)c3ccoc23)ccn1 [Example 81] | > 1000 nM
8 | CNC(=O)c1cc(COc2nnc(Nc3ccc(OC)cc3)c3ccoc23)ccn1 [Example 20, 4-(4-methoxyphenylamino)-7-(2-methylaminocarbonyl-4-pyridylmethoxy)furo-[2,3-d]pyridazine] | ≤ 100 nM
9 | CNC(=O)c1cc(Cc2cnc(Nc3ccc(Cl)cc3)c3ccccc23)ccn1 [Example 13, 1-(4-chlorophenylamino)-4-(2-methylaminocarbonyl-4-pyridylmethyl)isoquinoline] | ≤ 100 nM
10 | COc1ccc(Nc2nnc(OCc3ccncc3)c3occc23)cc1 [Example 56] | ≤ 100 nM
11 | CNC(=O)c1cc(COc2nnc(Nc3cc(C)cc(C)c3)c3ccoc23)ccn1 [Example 54] | ≤ 100 nM
12 | CNC(=O)c1cc(COc2nnc(Nc3ccc(F)cc3)c3ccoc23)ccn1 [Example 37] | ≤ 100 nM
13 | Brc1ccc2c(c1)CCN2c1nnc(Nc2ccc3ncsc3c2)c2ccccc12 [Example 97] | ≤ 100 nM
14 | CNC(=O)c1cc(COc2nnc(Nc3ccc(N(C)C)cc3)c3ccoc23)ccn1 [Example 41] | > 1000 nM
15 | Clc1ccc(Nc2ncc(Sc3ccncc3)c3ccccc23)cc1 [Example 1, 1-(4-chlorophenylamino)-4-(4-pyridylthio)isoquinoline] | ≤ 100 nM
16 | CNC(=O)c1cc(COc2nnc(Nc3cccc(C)c3)c3ccoc23)ccn1 [Example 40] | ≤ 100 nM
17 | CNC(=O)c1cc(COc2nnc(Nc3ccc4c(c3)OCO4)c3ccoc23)ccn1 [Example 52] | ≤ 100 nM
18 | CNC(=O)c1cc(COc2nnc(Nc3ccc4c(c3)OCO4)c3ccsc23)ccn1 [Example 74] | ≤ 100 nM
19 | CNC(=O)c1cc(COc2nnc(Nc3ccc(C(F)(F)F)cc3)c3ccoc23)ccn1 [Example 42] | ≤ 100 nM
20 | c1nc2ccc(Nc3nnc(Nc4ccc5ncsc5c4)c4sccc34)cc2s1 [Example 75] | ≤ 100 nM
21 | O=C(NC1CC1)c1cc(COc2nnc(Nc3ccc(Cl)cc3)c3ccoc23)ccn1 [Example 82B] | ≤ 100 nM
22 | CNC(=O)c1cc(COc2nnc(Nc3ccc(OC)cc3)c3ccsc23)ccn1 [Example 69] | ≤ 100 nM
23 | CNC(=O)c1cc(COc2nnc(Nc3ccc4c(c3)CCO4)c3ccsc23)ccn1 [Example 66] | ≤ 100 nM
24 | FC1(F)Oc2ccc(Nc3nnc(Nc4ccc5ncsc5c4)c4ccccc34)cc2O1 [Example 98] | ≤ 100 nM
25 | c1ccc2c(Nc3ccc4nn[nH]c4c3)nnc(Nc3ccc4nn[nH]c4c3)c2c1 [Example 94] | > 1000 nM
26 | CNC(=O)c1cc(COc2nnc(Nc3ccc(OC(F)(F)F)cc3)c3ccoc23)ccn1 [Example 43] | ≤ 100 nM
27 | c1cc2c(Nc3ccc4nn[nH]c4c3)nnc(Nc3ccc4nn[nH]c4c3)c2o1 [Example 29] | > 1000 nM

Row | Structure (SMILES) | IC50
28 | Clc1ccc(Nc2nnc(Nc3ccc4ncsc4c3)c3sccc23)cc1 [Example 17, 4-(4-chlorophenylamino)-7-(benzothiazol-6-ylamino)thieno[2,3-d]pyridazine] | ≤ 100 nM
29 | O=C(NCCO)c1cc(COc2nnc(Nc3ccc(Cl)cc3)c3ccoc23)ccn1 [Example 82C] | ≤ 100 nM
30 | Clc1ccc(Nc2ncc(Cc3ccncc3)c3ccccc23)cc1 [Example 4, 1-(4-chlorophenylamino)-4-(4-pyridylmethyl)isoquinoline] | ≤ 100 nM
31 | c1nc2c(Nc3ccc4ncsc4c3)nnc(Nc3ccc4ncsc4c3)c2[nH]1 [Example 33] | > 1000 nM
32 | CNC(=O)c1cc(COc2nnc(Nc3ccccc3)c3ccoc23)ccn1 [Example 59] | ≤ 100 nM
33 | c1cc2c(Nc3ccc4nn[nH]c4c3)nnc(Nc3ccc4nn[nH]c4c3)c2s1 [Example 26] | > 1000 nM
34 | CNC(=O)c1cc(COc2nnc(Nc3ccc(Br)cc3)c3ccoc23)ccn1 [Example 38] | ≤ 100 nM
35 | CNC(=O)c1cc(COc2nnc(Nc3ccc4sc(C)nc4c3)c3ccoc23)ccn1 [Example 62] | ≤ 100 nM
36 | CNC(=O)c1cc(COc2nnc(Nc3ccc(OC)c(Cl)c3)c3ccoc23)ccn1 [Example 44] | ≤ 100 nM
37 | CNC(=O)c1cc(COc2nnc(Nc3ccc(O)cc3)c3ccoc23)ccn1 [Example 57] | ≤ 100 nM
38 | CNC(=O)c1cc(COc2nnc(Nc3ccc4c(c3)CCC4)c3ccsc23)ccn1 [Example 73] | ≤ 100 nM
39 | CNC(=O)c1cc(COc2nnc(Nc3cccc(C)c3)c3ccsc23)ccn1 [Example 68] | ≤ 100 nM
40 | c1cc2c(Nc3ccc4[nH]ncc4c3)nnc(Nc3ccc4[nH]ncc4c3)c2o1 [Example 30] | > 1000 nM
41 | CCNC(=O)c1cc(COc2nnc(Nc3ccc(Cl)cc3)c3ccoc23)ccn1 [Example 82D] | ≤ 100 nM
42 | Cc1ccc(Nc2ncc(Cc3ccncc3)c3ccccc23)cc1F [Example 7, 1-(3-fluoro-4-methylphenylamino)-4-(4-pyridylmethyl)-isoquinoline] | 100 to 1000 nM
43 | CNC(=O)c1cc(COc2nnc(Nc3ccc(F)c(F)c3)c3ccoc23)ccn1 [Example 47] | ≤ 100 nM
44 | NC(=O)c1cc(Cc2cnc(Nc3ccc(Cl)cc3)c3ccccc23)ccn1 [Example 12, 1-(4-chlorophenylamino)-4-(2-aminocarbonyl-4-pyridylmethyl)isoquinoline] | ≤ 100 nM
45 | COc1cc(Nc2nnc(Nc3ccc4ncsc4c3)c3sccc23)cc(OC)c1OC [Example 80] | > 1000 nM
46 | CNC(=O)c1cc(COc2nnc(Nc3ccc4c(c3)CCC4)c3ccoc23)ccn1 [Example 49] | ≤ 100 nM
47 | CNC(=O)c1cc(COc2nnc(Nc3ccc(OC(F)(F)F)cc3)c3ccsc23)ccn1 [Example 70] | ≤ 100 nM
48 | Brc1ccc2c(c1)CCN2c1nnc(OCc2ccncc2)c2occc12 [Example 19, 4-(5-bromoindolin-1-yl)-7-(4-pyridylmethoxy)furo[2,3-d]pyridazine] | ≤ 100 nM
49 | CNC(=O)c1cc(COc2nnc(Nc3ccc(Br)cc3)c3ccsc23)ccn1 [Example 72] | ≤ 100 nM
50 | Cc1ccc(Nc2nnc(Nc3ccc4ncsc4c3)c3sccc23)c(C)c1 [Example 78] | ≤ 100 nM
51 | CNC(=O)c1cc(COc2nnc(Nc3cccc(OC)c3)c3ccoc23)ccn1 [Example 51] | ≤ 100 nM
52 | NC(=O)c1cc(COc2nnc(Nc3ccc(Cl)cc3)c3ccoc23)ccn1 [Example 16, 4-(4-chlorophenylamino)-7-(2-aminocarbonyl-4-pyridylmethoxy)furo-[2,3-d]pyridazine] | ≤ 100 nM
53 | CNC(=O)c1cc(COc2nnc(Nc3ccc(C(F)(F)F)cc3)c3ccsc23)ccn1 [Example 71] | ≤ 100 nM
54 | CNC(=O)c1cc(COc2nnc(Nc3ccc(Cl)c(Cl)c3)c3ccoc23)ccn1 [Example 53] | ≤ 100 nM
